Reference: patent US9708316B2 (BRISTOL-MYERS SQUIBB COMPANY, priority 2014, dated 2017)

How the values were obtained:
[1] = biological target: T1, HIS-TGFβR1 T204D (Homo sapiens, UniProt P36897, T204D); test: HTRF probe-displacement assay, HIS-TGFβR1 T204D; type: binding; details: read-out: TGFβR1 (μM) IC50
T1 sequence (P36897 34-503 T204D): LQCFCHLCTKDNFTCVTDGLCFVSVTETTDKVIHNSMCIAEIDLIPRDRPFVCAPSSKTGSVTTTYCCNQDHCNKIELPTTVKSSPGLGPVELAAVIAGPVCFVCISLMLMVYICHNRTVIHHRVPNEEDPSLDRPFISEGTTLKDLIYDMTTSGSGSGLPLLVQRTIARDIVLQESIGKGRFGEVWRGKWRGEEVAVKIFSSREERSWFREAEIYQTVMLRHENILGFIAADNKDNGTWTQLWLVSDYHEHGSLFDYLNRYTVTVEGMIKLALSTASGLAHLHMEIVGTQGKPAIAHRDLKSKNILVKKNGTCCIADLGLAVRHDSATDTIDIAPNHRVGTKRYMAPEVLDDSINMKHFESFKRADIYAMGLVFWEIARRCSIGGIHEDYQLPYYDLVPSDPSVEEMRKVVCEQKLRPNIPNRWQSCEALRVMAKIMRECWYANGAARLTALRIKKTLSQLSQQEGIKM

[2] = biological target: HIS-TGFβR2 WT (Homo sapiens, UniProt P37173); test: HTRF probe-displacement assay, HIS-TGFβR2 WT; type: binding
Chain of HIS-TGFβR2 WT (P37173 23-567): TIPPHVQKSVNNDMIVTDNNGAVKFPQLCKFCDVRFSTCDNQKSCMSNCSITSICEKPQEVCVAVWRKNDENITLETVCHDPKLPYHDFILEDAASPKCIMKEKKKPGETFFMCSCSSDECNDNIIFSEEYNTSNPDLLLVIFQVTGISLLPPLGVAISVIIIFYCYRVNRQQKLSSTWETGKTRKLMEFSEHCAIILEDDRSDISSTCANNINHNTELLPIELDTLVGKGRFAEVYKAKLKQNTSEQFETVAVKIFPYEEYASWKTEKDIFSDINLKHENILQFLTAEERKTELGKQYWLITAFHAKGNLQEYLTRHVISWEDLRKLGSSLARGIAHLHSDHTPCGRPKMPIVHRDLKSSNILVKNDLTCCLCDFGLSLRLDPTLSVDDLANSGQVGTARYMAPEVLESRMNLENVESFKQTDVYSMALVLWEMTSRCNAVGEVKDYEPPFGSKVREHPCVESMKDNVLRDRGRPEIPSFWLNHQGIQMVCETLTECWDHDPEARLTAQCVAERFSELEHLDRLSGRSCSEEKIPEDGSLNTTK

Structure (SMILES) | IC50 [1] | IC50 [2]
CC(=O)Nc1cc(-c2[nH]c3cccnc3c2-c2nccs2)ccn1 [Example 205, N-(4-(3-(Thiazol-2-yl)-1H-pyrrolo[3,2-b]pyridin-2-yl)pyridin-2-yl)acetamide] | 0.0029 µM | 0.147 µM
CC(=O)Nc1cc(-c2[nH]c3cc(Cl)cnc3c2-c2cccc(NCCO)n2)ccn1 [Example 68, N-[4-(6-Chloro-3-{6-[(2-hydroxyethyl)amino]pyridin-2-yl}-1H-pyrrolo[3,2-b]pyridin-2-yl)pyridin-2-yl]acetamide] | 0.96 µM | > 15 µM
COc1ccc(-c2c(-c3ccnc(NC(=O)CN4CCN(C)CC4)c3)[nH]c3cc(OC)cnc23)nc1 [Example 119, N-{4-[6-Methoxy-3-(5-methoxypyridin-2-yl)-1H-pyrrolo[3,2-b]pyridin-2-yl]pyridin-2-yl}-2-(4-methylpiperazin-1-yl)acetamide] | < 0.001 µM | > 15 µM
CC(=O)Nc1cc(-c2[nH]c3cccnc3c2-c2ccc3cnccc3c2)ccn1 [Example 17, N-{4-[3-(Isoquinolin-6-yl)-1H-pyrrolo[3,2-b]pyridin-2-yl]pyridin-2-yl}acetamide] | 0.014 µM | > 15 µM
COc1ccc(-c2c(-c3ccnc(NC(C)=O)c3)[nH]c3cc(N4CCC[C@@H]4CO)cnc23)nc1 [Example 163, (R)-N-(4-(6-(2-(Hydroxymethyl)pyrrolidin-l-yl)-3-(5-methoxypyridin-2-yl)-1H-pyrrolo[3,2-b]pyridin-2-yl)pyridin-2-yl)acetamide] | 0.0304 µM | > 15 µM
COc1cnc2c(-c3ccc(OC(F)F)cn3)c(-c3ccnc(NC(C)=O)c3)[nH]c2c1 [Example 113, N-(4-(3-(5-(Difluoromethoxy)pyridin-2-yl)-6-methoxy-1H-pyrrolo[3,2-b]pyridin-2-yl)pyridin-2-yl)acetamide] | 0.003 µM | 14.6 µM
CC(=O)Nc1cc(-c2[nH]c3c(C#N)ccnc3c2-c2nc(C)cs2)ccn1 [Example 240, N-(4-(7-Cyano-3-(4-methylthiazol-2-yl)-1H-pyrrolo[3,2-b]pyridin-2-yl)pyridin-2-yl)acetamide] | 0.594 µM | > 15 µM
CC(=O)Nc1cc(-c2[nH]c3cccnc3c2-c2cc(C)ccn2)ccn1 [Example 31, N-{4-[3-(4-Methylpyridin-2-yl)-1H-pyrrolo[3,2-b]pyridin-2-yl]pyridin-2-yl}acetamide] | 0.019 µM | 0.66 µM
CN1CCN(CC(=O)Nc2cc(-c3[nH]c4cc(Cl)cnc4c3-c3ccc(F)cn3)ccn2)CC1 [Example 88, N-{4-[6-Chloro-3-(5-fluoropyridin-2-yl)-1H-pyrrolo[3,2-b]pyridin-2-yl]pyridin-2-yl}-2-(4-methylpiperazin-1-yl)acetamide] | 0.001 µM | 9.92 µM
CC(=O)Nc1cc(-c2[nH]c3c(C4CCCCO4)ccnc3c2-c2cccc(C(F)F)n2)ccn1 (stereo not drawn) [Example 134, N-(4-{3-[6-(Difluoromethyl)pyridin-2-yl]-7-(oxan-2-yl)-1H-pyrrolo[3,2-b]pyridin-2-yl}pyridin-2-yl)acetamide] | 0.004 µM | 8.66 µM
COC(=O)c1ccnc2c(-c3ccc(F)cn3)c(-c3ccnc(NC(C)=O)c3)[nH]c12 [Example 71, Methyl 2-(2-acetamidopyridin-4-yl)-3-(5-fluoropyridin-2-yl)-1H-pyrrolo[3,2-b]pyridine-7-carboxylate] | 0.27 µM | 4.38 µM
CC(=O)Nc1cc(-c2[nH]c3c(C(C)O)ccnc3c2-c2nc(C)cs2)ccn1 (stereo not drawn) [Example 232, N-(4-(7-(1-Hydroxyethyl)-3-(4-methylthiazol-2-yl)-1H-pyrrolo[3,2-b]pyridin-2-yl)pyridin-2-yl)acetamide] | 0.003 µM | 0.115 µM
COc1cnc2c(-c3nc(C)cs3)c(-c3ccnc(NC(C)=O)c3)[nH]c2c1 [Example 208, N-(4-(6-Methoxy-3-(4-methylthiazol-2-yl)-1H-pyrrolo[3,2-b]pyridin-2-yl)pyridin-2-yl)acetamide] | 0.0006 µM | 0.044 µM
CC(=O)Nc1cc(-c2[nH]c3cc(Cl)cnc3c2-c2nc(C#N)cs2)ccn1 [Example 177, N-(4-(6-Chloro-3-(4-cyanothiazol-2-yl)-1H-pyrrolo[3,2-b]pyridin-2-yl)pyridin-2-yl)acetamide] | 0.0014 µM | > 15 µM
COc1ccc(-c2c(-c3ccnc(NC(C)=O)c3)[nH]c3c(CN)ccnc23)cn1 [Example 81, N-(4-(7-(Aminomethyl)-3-(6-methoxypyridin-3-yl)-1H-pyrrolo[3,2-b]pyridin-2-yl)pyridin-2-yl)acetamide] | 0.014 µM | 0.26 µM
CC(=O)Nc1cc(-c2[nH]c3c(CO)ccnc3c2-c2cccc(C)n2)ccn1 [Example 279, N-(4-(7-(Hydroxymethyl)-3-(6-methylpyridin-2-yl)-1H-pyrrolo[3,2-b]pyridin-2-yl)pyridin-2-yl)acetamide] | 0.006 µM | 9.9 µM
CCN1CCN(CC(=O)Nc2cc(-c3[nH]c4cc(Cl)cnc4c3-c3ccc(OC)nc3)ccn2)CC1 [Example 291, N-(4-(6-chloro-3-(6-methoxypyridin-3-yl)-1H-pyrrolo[3,2-b]pyridin-2-yl)pyridin-2-yl)-2-(4-ethylpiperazin-1-yl)acetamide] | 0.001 µM | 1.66 µM
CC(=O)Nc1cc(-c2[nH]c3cc(Cl)cnc3c2-c2nc(C(F)(F)F)cs2)ccn1 [Example 175, N-(4-(6-Chloro-3-(4-(trifluoromethyl)thiazol-2-yl)-1H-pyrrolo[3,2-b]pyridin-2-yl)pyridin-2-yl)acetamide] | 0.0004 µM | > 15 µM
COc1ccc(-c2c(-c3ccnc(NC(C)=O)c3)[nH]c3cc(NC(C)=O)cnc23)nc1 [Example 157, N-(4-(6-Acetamido-3-(5-methoxypyridin-2-yl)-1H-pyrrolo[3,2-b]pyridin-2-yl)pyridin-2-yl)acetamide] | 0.0013 µM | > 15 µM

Further compounds by falling IC50 [1], results first:

IC50 [1] | IC50 [2] | Structure (SMILES)
7.73 µM | > 15 µM | COC(=O)c1cc(Cl)nc2c(-c3ccc(Cl)cn3)c(-c3ccnc(NC(C)=O)c3)[nH]c12 [Example 70, Methyl 5-chloro-3-(5-chloropyridin-2-yl)-2-(2-acetamidopyridin-4-yl)-1H-pyrrolo[3,2-b]pyridine-7-carboxylate]
0.2 µM | > 15 µM | CC(=O)Nc1cc(-c2[nH]c3c(C4CCN(C)CC4)ccnc3c2-c2cccc(C)n2)ccn1 [Example 138, N-{4-[7-(1-Methylpiperidin-4-yl)-3-(6-methylpyridin-2-yl)-1H-pyrrolo[3,2-b]pyridin-2-yl]pyridin-2-yl}acetamide]
0.017 µM | > 15 µM | CCc1ccnc(-c2c(-c3ccnc(NC(C)=O)c3)[nH]c3cccnc23)c1 [Example 29, N-{4-[3-(4-Ethylpyridin-2-yl)-1H-pyrrolo[3,2-b]pyridin-2-yl]pyridin-2-yl}acetamide]
0.0126 µM | > 15 µM | COc1ccc(-c2c(-c3ccnc(NC(C)=O)c3)[nH]c3cc(N4CCC(CO)CC4)cnc23)nc1 [Example 161, N-(4-(6-(4-(Hydroxymethyl)piperidin-l-yl)-3-(5-methoxypyridin-2-yl)-1H-pyrrolo[3,2-b]pyridin-2-yl)pyridin-2-yl)acetamide]
0.005 µM | > 15 µM | [2H]C([2H])([2H])Oc1ccc(-c2c(-c3ccnc(NC(C)=O)c3)[nH]c3cc(Cl)cnc23)nc1 [Example 105, N-(4-(6-Chloro-3-(5-(methoxy-d3)pyridin-2-yl)-1H-pyrrolo[3,2-b]pyridin-2-yl)pyridin-2-yl)acetamide]
0.004 µM | 4.33 µM | COc1ccc(-c2c(-c3ccnc(NC(C)=O)c3)[nH]c3cc(C(O)C(F)(F)F)cnc23)nc1 (stereo not drawn) [Example 297, N-(4-(3-(5-Methoxypyridin-2-yl)-6-(2,2,2-trifluoro-1-hydroxyethyl)-1H-pyrrolo[3,2-b]pyridin-2-yl)pyridin-2-yl)acetamide]
0.0035 µM | 0.176 µM | CC(=O)Nc1cc(-c2[nH]c3cc(Cl)cnc3c2-c2nc(CO)cs2)ccn1 [Example 178, N-(4-(6-Chloro-3-(4-(hydroxymethyl)thiazol-2-yl)-1H-pyrrolo[3,2-b]pyridin-2-yl)pyridin-2-yl)acetamide]
0.003 µM | 11.3 µM | COc1cnc2c(-c3cccc(C(F)F)n3)c(-c3ccnc(NC(=O)CN(C)C)c3)[nH]c2c1 [Example 117, N-(4-{3-[6-(Difluoromethyl)pyridin-2-yl]-6-methoxy-1H-pyrrolo[3,2-b]pyridin-2-yl}pyridin-2-yl)-2-(dimethylamino)acetamide]
0.0012 µM | 0.544 µM | CC(=O)Nc1cc(-c2[nH]c3cc(C)cnc3c2-c2nc(C#N)cs2)ccn1 [Example 224, N-(4-(3-(4-Cyanothiazol-2-yl)-6-methyl-1H-pyrrolo[3,2-b]pyridin-2-yl)pyridin-2-yl)acetamide]
0.0011 µM | 1.48 µM | COc1ccc(-c2c(-c3ccnc(NC(C)=O)c3)[nH]c3cccnc23)nn1 [Example 198, N-(4-(3-(6-Methoxypyridazin-3-yl)-1H-pyrrolo[3,2-b]pyridin-2-yl)pyridin-2-yl)acetamide]
0.001 µM | 5.99 µM | O=C(CN1CCN(CCO)CC1)Nc1cc(-c2[nH]c3cc(Cl)cnc3c2-c2ccc(F)cn2)ccn1 [Example 246, N-(4-(6-Chloro-3-(5-fluoropyridin-2-yl)-1H-pyrrolo[3,2-b]pyridin-2-yl)pyridin-2-yl)-2-(4-(2-hydroxyethyl)piperazin-1-yl)acetamide]
